Entries after “also recorded” stand apart in the source; their conditions may differ. Read-outs that look alike come from different tables or passages of the source.

Series [1] concerns NTox released by Aβ1-42-stimulated microglia (neuron killing). The series is described as follows: cells. The class given is cell-based, rat. The text has this: . Briefly, hippocampal cells obtained from embryonic stage 18 rat fetuses were dispersed mechanically in the presence of 0.125% trypsin and plated onto poly-L-lysine coated glass coverslips in 24 well plates at 250,000 cells per well (resulting in adhering cell densities of about 1250 cells per mm^2) in chemically-defined N2 culture media containing 5% fetal bovine serum. Gradual reduction of serum began on day 10 in vitro with daily 1:1 volume replacements with chemically-defined media, until a final concentration of 0.6% serum was achieved. […]; see FIG. 18). In order to eliminate microglia, cultures were exposed to saporin (sap; a ribosome-inactivating protein; Davis and Wiley, 1989) coupled to acetylated LDL (ac-LDL) at a concentration of 10 μg/ml for 12 hours. […] Cultures depleted of microglia were then exposed to test substances in the presence or absence of exogenous microglia (100,000 cells per culture). […]. Controls included cultures without saporin-treatment, cultures without test substances, and cultures with test substances but lacking microglia.
(§1) On day 14 of culture, immediately following saporin treatment, test substances were added to the hippocampal cultures. Synthetic peptide were supplied as 1 mM stock solutions in 0.1 M phosphate buffered saline, pH 7.2, stored for at least 1 week at 4° C. before use. After 72 hours incubation, the cultures were fixed in 4% paraformaldehyde at room temperature for 18 hours and immuno-stained by overnight incubation with a mixture of anti-neurofilament antibodies (NF; SMI-311, 1:600; Stemberger Monoclonals, Inc.) plus anti-MAP-2 (Boehringer Mannheim, 184959; 1:600) at 4° C. in the presence of 2% horse serum and 0.3% triton X-100 to delineate both neuronal cell bodies and neurites. Astroglia were visualized using sheep anti-glial fibrillary acidic protein (GFAP, Sigma) as described by Giulian et al., 1989. Finally, to label all cell nuclei, the coverslips were exposed to 0.01% bisbenzimide (Hoechst 33258; Sigma) in PBS, pH 6.9, and rinsed in distilled water and mounted in glycerin. Immuno-labeled cells per field and nuclei per field were scored at 200X magnification using fluorescence microscopy. Data were expressed as % mean survival expressed in terms of parallel untreated control cultures after scoring at least 20 randomly selected fields for each of 3 coverslips.
The procedures described above and by Giulian et al, 1996, provided for the identification of tyramine compounds as therapeutic agents for neurodegenerative diseases or disorders including, for example, Alzheimer's disease. Cells from the brain of fetal rats were grown in tissue cultures. Microglial populations within the cultures were controlled following the method described in Example 5 above. Known amounts of Aβ peptides coupled to microspheres were added to the culture. The Aβ spheres stimulated the microglia to release NTox, which in turn destroyed the neurons. The neurons in the cultures were monitored for survival by immuno-staining.
Generally, drug assays involve the addition of known concentrations of a test agent over a range of concentrations. After 72 hours, the experiment is stopped and the neurons are identified by immuno-staining. The data is expressed as % neuronal survival […]. Dose response curves are then used to estimate Effective Dose50 % (ED50) of neuroprotective agents. […].
In this experiment, about 65% of the neurons were destroyed by the Aβ-stimulated microglia. […] Other tyramine compounds, including tyrosine esters, were neuroprotective (FIG. 30).
Following the methods described herein, numerous compounds were examined to determine their neuroprotective activity. […]

A further series has as its system NTox. The series is described as follows: protection of neurons against isolated NTox applied directly. It counts as cell-based. The settings on record: isolated NTox; FIGS. 13, 32. The text has this:
FIG. 32 is a graph showing the specificity of tyramine compounds to NTox. […].
Initial studies to characterize the neuroprotective effect of tyramine compounds employed microglia-neuron co-culture assays in the presence of Aβ or isolated senile plaques. Inhibition of neuron killing in […]--inhibition of microglial activation by Aβ or plaques; inhibition of NTox production and release by microglia; or inhibition of action of NTox upon neurons. […] Effective doses in the low nmolar range show the tyramine compounds to be very potent agents compared with low μmolar range of other neuroprotective drugs under development for neurological disorders.

The test system of a further series is quinolinic acid (QUIN). The series is described as follows: protection of neurons against quinolinic acid. It counts as cell-based. The settings on record: QUIN (100 μM in FIG. 13). The text has this: FIG. 32 is a graph showing the specificity of tyramine compounds to NTox. […]
The next series concerns rat microglia. The series can be described thus: binding of Aβ-coupled microspheres to microglia. The settings on record: 4 hours at 37° C. (72 h in FIG. 23).
The subject of a further series is microglia. The series is described as follows: inhibition of SpheresAβ1-42 binding to microglia. Details: species or system rat. The settings on record: for SpheresAβ1-42 binding after enzymatic treatment of microglia: trypsin 5000 units/ml, heparinase 0.01 units/ml, chondroitinase ABC 0.02 units/ml. The procedure:
(§2) Spheresmal-BSA (which bind to scavenger receptors) or SpheresAβ1-42 were incubated with microglia for 4 hours following pre-treatment of cells with trypsin (5000 units/ml at 37° C. for 60 min followed by inactivation with soybean trypsin inhibitor), with heparinase (heparin lyase EC 4.2.2.7; two consecutive treatments each of 0.01 units/ml for 60 min), or with chondroitinase ABC (chondroitin ABC lyase EC 4.3.3.4; two consecutive treatments each of 0.02 units/ml for 60 min). […] Microglia mixed with hippocampal neurons were treated with combinations of β-D-xyloside (1 mm), heparinase (0.02 units/ml), or chondroitinase (0.04 units/ml) and then exposed to plaques.
Each well then received 250,000 SpheresAβ1-42 or Spheresmal-BSA in the presence or absence of Aβ peptides, GAGs, or scavenger receptor ligands. Binding assays were carried out at 37° C. for 4 hours after which coverslips were dipped 10 times in phosphate buffer and fixed with 4% buffered paraformaldehyde. Microsphere adherence to cells was scored at 200 magnification with phase/fluorescence microscopy. Data, expressed as % inhibition of sphere binding, was calculated from total number of spheres per field noted for control cultures receiving spheres only. Values are based upon at least 3 coverslips from 2 independent experiments. […] Washed spheres were resuspended in 0.2 M borate buffer (pH 8.5) in the presence of 300 μg Aβ or 400 μg BSA in 6% DMSO. After overnight mixing at room temperature, the spheres were washed extensively and blocked by 1 M glycine (pH 8.0) for 30 minutes.

Series [2] concerns Aβ1-42-stimulated microglia. It counts as cell-based, rat. The settings on record: for blocking of Aβ1-42 induced microglial neurotoxicity by peptides: 10 μmoles/liter peptide, 1 μmole/liter Aβ1-42; for IC50: read-out: ED50 (blocking of Aβ1-42 induced neurotoxicity), FIG. 16B.
Excerpt: (§3) Briefly, hippocampal cells obtained from embryonic stage 18 rat fetuses were dispersed mechanically in the presence of 0.125% trypsin and plated onto poly-L-lysine coated glass coverslips in 24 well plates at 250,000 cells per well (resulting in adhering cell densities of about 1250 cells per mm^2) in chemically-defined N2 culture media containing 5% fetal bovine serum. Gradual reduction of serum began on day 10 in vitro with daily 1:1 volume replacements with chemically-defined media, until a final concentration of 0.6% serum was achieved. […] In order to eliminate microglia, cultures were exposed to saporin (sap; a ribosome-inactivating protein; Davis and Wiley, 1989) coupled to acetylated LDL (ac-LDL) at a concentration of 10 μg/ml for 12 hours. […] Cultures depleted of microglia were then exposed to test substances in the presence or absence of exogenous microglia (100,000 cells per culture). […] Controls included cultures without saporin-treatment, cultures without test substances, and cultures with test substances but lacking microglia.
as §1

In series [3] the test system is reactive microglia in rat neocortex. The series is described as follows: brain inflammatory response after infusion into neocortex of adult rat. It counts as in vivo. The settings on record: 0.5 nmoles Aβ1-42, co-infusion of 1.0 nmole peptide; 5 days.
For series [4], the system named is human microglia. The series is described as follows: induction of neuron-killing human microglia. The class given is cell-based. The settings on record: 1 μmole/liter synthetic peptides.
Series [5] has as its system human microglia. The series is described as follows: nitrite/nitrate production, human microglia. The class given is cell-based. How it is done: Nitrites and nitrates, stable byproducts of nitric oxide synthetase (NOS) served as markers for nitric oxide (NO) synthesis (Ignarro, 1990). […]; for 24 to 72 hours incubated in the presence of neuritic/core plaques or Aβ peptides) were measured by the Griess method set forth by Beckman et al., 1990 against a standard curve ranging from 0.1 to 50.0 μM nitrate.

The format of series [6] is physicochemical. The settings on record: chemically defined culture media, 37° C.; Table 2. The text has this:
Solubility of peptides is described for chemicallydefined culture media a […]

Series [7] deals with rat microglia / hippocampal neurons. The settings on record: for induction of neurotoxic microglia / neuron killing: rat microglia, mostly 1 μmole/l.
A further series has as its system hippocampal neurons. It counts as cell-based, rat. The settings on record: absence of microglia.
Excerpt: as §3, §1

The test system of series [8] is plaque-stimulated microglia. The series is described as follows: blocking of plaque-induced microglial neurotoxicity. The class given is cell-based, rat. The settings on record: FIG. 16C.
A further series relates to scavenger receptor. The series is described as follows: inhibition of Spheresmal-BSA binding to microglia. Details: species or system rat. How it is done: as §2
Each well then received 250,000 SpheresAβ1-42 or Spheresmal-BSA in the presence or absence of Aβ peptides, GAGs, or scavenger receptor ligands. Binding assays were carried out at 37° C. for 4 hours after which coverslips were dipped 10 times in phosphate buffer and fixed with 4% buffered paraformaldehyde. Microsphere adherence to cells was scored at 200 magnification with phase/fluorescence microscopy. Data, expressed as % inhibition of sphere binding, was calculated from total number of spheres per field noted for control cultures receiving spheres only. Values are based upon at least 3 coverslips from 2 independent experiments. […]

For `NCCc1ccc(O)cc1` [tyramine], in series [1] (10 μM, 72 hours, FIG. 30), the protective effect entry is recorded as “completely prevented neuron death”. In addition, the “neuroprotective activity (structure/function)” value in series [1] (Example 14) is “enhance neuroprotective effects”. In [1] (Rattus norvegicus, Aβ-stimulated microglia, 72 h, FIG. 31, read-out: ED50 (neuroprotection)), the EC50 is about 0.2 µM. In addition, the “inhibition of killing action of NTox applied to neurons” value in the series with NTox is “prevented neuronal injury”. The “protection against quinolinic acid” value in the series on quinolinic acid (QUIN) is recorded as “did not occur with quinolinic acid”.

For “Aβ1-5: Aβ peptide residues 1-5 (DAEFR; Amyloid-beta protein 42; UniProt P05067 672-676, looked up, fragment)”, the “binding of peptide-coupled microspheres to microglia” value in the series on rat microglia is listed as “did not”. Further, the “inhibition of SpheresAβ1-42 binding by peptides” value in the series with microglia (10 μmoles/l, 4 hours, 37° C.) is “did not”. Further, the “blocking of Aβ1-42 induced microglial neurotoxicity by peptides” value in series [2] is listed as “did not”. Besides, the “local brain inflammatory response” value in series [3] is reported as “did not alter inflammation”.

Turning to “Aβ1-40: synthetic human β-amyloid peptide 1-40”, the “induction of neurotoxic human microglia” value with human microglia [4] is listed as “very potent inducers of neurotoxic human microglia; also recorded: stimulated release of neurotoxin from human microglia”. The “binding of peptide-coupled microspheres to microglia” value in the series on rat microglia is “marked glial binding”. For the same compound, the “release of nitrate or nitrite, human microglia” value in the series with human microglia [5] is “did not bring about release of nitrate or nitrites”. The Solubility entry in series [6] is given as “moderately soluble”. Moreover, in series [7], the “neuron killing, microglia separated from neurons (no contact)” value is “stimulated microglia to destroy neurons”. Also, in series [7] (500 microglia per mm^2), the “ED50 (neuron killing via microglia)” value is about 0.08 µM. Also, the “induction of neurotoxic microglia / neuron killing” value in series [7] (listed as A1-40) is given as “neuron killing could be induced”. Moreover, the killing of neurons in [7] (rat, hippocampal neurons, 72 h, 1 µM) is 70-80%.

Consider Aβ1-43: small Aβ peptide (as printed), for which, in the series with hippocampal neurons, the “direct neurotoxicity without microglia” value is recorded as “did not produce neurotoxicity”. Moreover, the “induction of neurotoxic microglia / neuron killing” value in series [7] is given as “did not produce neurotoxicity”.

For “Aβ13-16: residues His13, His14, Gln15, and Lys16 (the HHQK domain within Aβ) (Amyloid-beta protein 42; UniProt P05067 684-687, looked up, fragment)”, in series [2], the “blocking of Aβ1-42 induced microglial neurotoxicity by peptides” value is on record as “blocked neurotoxin production” and the IC50 is about 0.03 µM. Further, the “blocking of Aβ1-42 induced microglial neurotoxicity by peptides” value in [2] (listed as HHQK) was “one of the most potent plaque suppressor peptides identified”. Also, the “blocking of plaque-induced microglial toxicity by peptides” value in [8] was “blocked plaque-induced toxicity in vitro”. Also, the “local brain inflammatory response” value in series [3] was “blocks the interaction of Aβ1-42 with microglia in vivo and reduces the local brain inflammatory response; also recorded: markedly reduced”.

As to “Aβ13-20: Aβ peptide residues 13-20 (HHQKLVFF; Amyloid-beta protein 42; UniProt P05067 684-691, looked up, fragment)”, the IC50 in series [2] stood at 0.25 µM. Also, the “blocking of plaque-induced microglial toxicity by peptides” value in series [8] is given as “blocked plaque-induced toxicity in vitro”.

Turning to dextran sulfate, the “inhibition of SpheresAβ1-42 binding by GAGs and scavenger receptor ligands” value in the series with microglia (heparin sulfate 50 μg/ml, dextran sulfate 500 μg/ml, ac-LDL 200 μg/ml) is “only heparin sulfate blocked; also recorded: not similar compounds”. Also, the “inhibition of Spheresmal-BSA binding by ligands” value in the series on scavenger receptor (dextran sulfate 500 μg/ml, ac-LDL 200 μg/ml, Aβ1-16 10 μmole/l) was “blocked”.

On to trypsin, for which the “SpheresAβ1-42 binding after enzymatic treatment of microglia” value is given as “reduced by trypsin” with microglia and “markedly reduced” in the series on microglia (listed as trypsinization). For the same compound, the “Spheresmal-BSA binding after enzymatic treatment of microglia” value with scavenger receptor (trypsin 5000 units/ml, chondroitinase ABC 0.02 units/ml) is listed as “reduced by trypsin”.

Values taken from patent US6043283A, “Tyramine compounds and their neuronal effects” (priority 1997, dated 2000).
